# Reference: PubChem BioAssay AID328 (DTP/NCI, 2004)
# “And” between values parts separate entries of the source, which are not always exact repeats. Equal entries are not always repeated. Toxic doses and inconclusive results are not listed.
# Tested on: BDF1 mice, P388 leukemia ip, median survival T/C
# Assay: NCI In Vivo Anticancer Drug Screen. Data for tumor model P388 Leukemia (intraperitoneal) in B6D2F1 (BDF1) mice
# Conditions: endpoint: median survival time, higher = longer survival
# Summary of the method: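 Vehicle-dosed animals serve as the reference; survival of compound-dosed, tumour-implanted mice is divided by it.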
# [1] = dose: 50.0 mg/kg/injection, schedule: Q01DX009 (ip), vehicle: Klucel (hydroxypropylcellulose) (HPC)
# [2] = dose: 100.0 mg/kg/injection, schedule: Q01DX009 (ip), vehicle: Klucel (hydroxypropylcellulose) (HPC)
# [3] = dose: 100.0 mg/kg/injection, schedule: Q04DX003 (ip), vehicle: Klucel (hydroxypropylcellulose) (HPC)
# [4] = dose: 200.0 mg/kg/injection, schedule: Q01DX009 (ip), vehicle: Klucel (hydroxypropylcellulose) (HPC)
# [5] = dose: 200.0 mg/kg/injection, schedule: Q04DX003 (ip), vehicle: Klucel (hydroxypropylcellulose) (HPC)
# [6] = dose: 100.0 mg/kg/injection, schedule: Q04DX002 (ip), vehicle: saline with Tween-80
# [7] = dose: 200.0 mg/kg/injection, schedule: Q04DX002 (ip), vehicle: saline with Tween-80
# [8] = dose: 50.0 mg/kg/injection, schedule: Q01DX009 (ip), vehicle: saline with Tween-80
# [9] = dose: 100.0 mg/kg/injection, schedule: Q01DX009 (ip), vehicle: saline with Tween-80
# [10] = dose: 200.0 mg/kg/injection, schedule: Q01DX009 (ip), vehicle: saline with Tween-80
# [11] = dose: 100.0 mg/kg/injection, schedule: Q04DX003 (ip), vehicle: saline with Tween-80
# [12] = dose: 200.0 mg/kg/injection, schedule: Q04DX003 (ip), vehicle: saline with Tween-80
# [13] = dose: 100.0 mg/kg/injection, schedule: Q04DX003 (ip), vehicle: saline
# [14] = dose: 200.0 mg/kg/injection, schedule: Q04DX003 (ip), vehicle: saline
# [15] = dose: 12.5 mg/kg/injection, schedule: Q01DX009 (ip), vehicle: saline with Tween-80
# [16] = dose: 50.0 mg/kg/injection, schedule: Q01DX009 (ip), vehicle: saline
# [17] = dose: 100.0 mg/kg/injection, schedule: Q01DX009 (ip), vehicle: saline
# [18] = dose: 200.0 mg/kg/injection, schedule: Q01DX009 (ip), vehicle: saline
# [19] = dose: 25.0 mg/kg/injection, schedule: Q01DX009 (ip), vehicle: Klucel (hydroxypropylcellulose) (HPC)
# [20] = dose: 400.0 mg/kg/injection, schedule: Q01DX009 (ip), vehicle: saline with Tween-80
# [21] = dose: 400.0 mg/kg/injection, schedule: Q04DX003 (ip), vehicle: saline with Tween-80
structure (smiles),measurement,setting,value
C1=CC=CN(c2ccccc2)C=C1,T/C,[1],90 % of control
same,T/C,[2],105 % of control
same,T/C,[3],95 % of control
same,T/C,[4],105 % of control
same,T/C,[5],91 % of control
same,T/C,"dose: 400.0 mg/kg/injection, schedule: Q04DX003 (ip), vehicle: Klucel (hydroxypropylcellulose) (HPC)",100 % of control
CCCC/C(C=O)=C\NC(=O)Nc1ccccc1,T/C,"dose: 50.0 mg/kg/injection, schedule: Q04DX002 (ip), vehicle: saline with Tween-80",100 % of control
same,T/C,[6],90 % of control
same,T/C,[7],98 % of control
COc1cccc(/C=N/NC(=O)c2cc(C)nc3ccc(Br)cc23)c1O,T/C,[8],103 % of control
same,T/C,[9],103 % of control
same,T/C,[10],100 % of control
CCCCc1c2c(nn1C(C)=O)C(=O)C=C(Nc1ccccc1)C2=O,T/C,[11],100 % of control
same,T/C,[12],99 % of control
CC1(C)OC(COCCOCCO)C(COCCOCCO)O1 (stereo not drawn),T/C,[13],96 % of control
same,T/C,[14],103 % of control
same,T/C,"dose: 400.0 mg/kg/injection, schedule: Q04DX003 (ip), vehicle: saline",96 % of control
CC(=O)Oc1c(Cl)c(Cl)c(Cl)c(Cl)c1Cl,T/C,"dose: 100.0 mg/kg/injection, schedule: Q01DX001 (ip), vehicle: saline with Tween-80",115 % of control
same,T/C,"dose: 200.0 mg/kg/injection, schedule: Q01DX001 (ip), vehicle: saline with Tween-80",95 % of control
same,T/C,"dose: 400.0 mg/kg/injection, schedule: Q01DX001 (ip), vehicle: saline with Tween-80",100 % of control
NCCSC(c1ccccc1)c1ccccc1,T/C,[1],100 % of control
same,T/C,[2],105 % of control
C[CH2][Pb]([CH2]C)([CH2]C)[O][As](=O)(O)c1ccc(N)cc1,T/C,"dose: 1.5 mg/kg/injection, schedule: Q01DX009 (ip), vehicle: saline",107 % of control
same,T/C,"dose: 2.0 mg/kg/injection, schedule: Q01DX009 (ip), vehicle: saline",111 % of control
same,T/C,"dose: 3.0 mg/kg/injection, schedule: Q01DX009 (ip), vehicle: saline",103 % of control
same,T/C,"dose: 4.5 mg/kg/injection, schedule: Q01DX009 (ip), vehicle: saline",95 % of control
COc1cc(NS(C)(=O)=O)ccc1Nc1c2ccc(Cl)cc2nc2c(OC)cccc12,T/C,"dose: 0.8 mg/kg/injection, schedule: Q01DX005 (iv), vehicle: water",106 % of control
same,T/C,"dose: 0.8 mg/kg/injection, schedule: Q04DX003 (iv), vehicle: water",105 % of control
same,T/C,"dose: 1.6 mg/kg/injection, schedule: Q01DX005 (iv), vehicle: water",99 % of control
same,T/C,"dose: 1.6 mg/kg/injection, schedule: Q04DX003 (iv), vehicle: water",100 % of control
same,T/C,"dose: 3.3 mg/kg/injection, schedule: Q01DX005 (iv), vehicle: water",114 % of control
same,T/C,"dose: 3.3 mg/kg/injection, schedule: Q04DX003 (iv), vehicle: water",109 % of control
same,T/C,"dose: 6.5 mg/kg/injection, schedule: Q04DX003 (iv), vehicle: water",124 % of control
same,T/C,[15],95 % of control
same,T/C,"dose: 26.0 mg/kg/injection, schedule: Q04DX003 (iv), vehicle: water",250 % of control
CCCOP(=S)(N1CC1(C)C)N1CC1(C)C (stereo not drawn),T/C,"dose: 66.0 mg/kg/injection, schedule: Q01DX009 (ip), vehicle: saline with Tween-80",168 % of control
same,T/C,[9],209 % of control and 222 % of control
same,T/C,[11],116 % of control
same,T/C,[12],108 % of control
NN=C(NN)NN,T/C,[16],105 % of control
same,T/C,[17],105 % of control
same,T/C,[18],96 % of control
COc1cccc(C2N=NC3=C(CCCC3)N2O)c1O (stereo not drawn),T/C,[19],95 % of control
same,T/C,[1],87 % of control
same,T/C,[4],96 % of control
N#CSCc1ccc(CSC#N)c(Cl)c1,T/C,"dose: 1.56 mg/kg/injection, schedule: Q01DX009 (ip), vehicle: saline with Tween-80",118 % of control
same,T/C,"dose: 6.25 mg/kg/injection, schedule: Q01DX009 (ip), vehicle: saline with Tween-80",100 % of control
CCN(CC)CCCC(C)NC(=O)c1ccc(N(C)C)nc1 (stereo not drawn),T/C,"dose: 50.0 mg/kg/injection, schedule: Q01DX009 (ip), vehicle: water",93 % of control
COc1ccc(C2CCc3cc4c(cc3C2=O)OCO4)cc1OC (stereo not drawn),T/C,[9],100 % of control
same,T/C,[11],90 % of control
same,T/C,[10],95 % of control
same,T/C,[12],100 % of control
same,T/C,[20],100 % of control
same,T/C,[21],100 % of control
CC(C)N(c1c2c(oc(=O)c1Cl)CCSC2)C(C)C,T/C,[6],99 % of control
same,T/C,[7],101 % of control
same,T/C,"dose: 400.0 mg/kg/injection, schedule: Q04DX002 (ip), vehicle: saline with Tween-80",96 % of control
OCC1(c2ccccc2)CCN(Cc2ccccc2)CC1,T/C,[19],107 % of control
same,T/C,[1],107 % of control
same,T/C,[2],87 % of control
same,T/C,[3],91 % of control
same,T/C,[5],87 % of control
OCCC1CC1=C1CC1 (stereo not drawn),T/C,[19],105 % of control
same,T/C,[1],105 % of control
same,T/C,[2],110 % of control
CCC1CN1CC1CO1 (stereo not drawn),T/C,"dose: 8.3 mg/kg/injection, schedule: Q04DX003 (ip), vehicle: Klucel (hydroxypropylcellulose) (HPC)",110 % of control
same,T/C,"dose: 12.0 mg/kg/injection, schedule: Q04DX003 (ip), vehicle: Klucel (hydroxypropylcellulose) (HPC)",120 % of control
same,T/C,"dose: 29.0 mg/kg/injection, schedule: Q04DX003 (ip), vehicle: Klucel (hydroxypropylcellulose) (HPC)",119 % of control
same,T/C,[5],204 % of control
same,T/C,"dose: 300.0 mg/kg/injection, schedule: Q04DX003 (ip), vehicle: Klucel (hydroxypropylcellulose) (HPC)",190 % of control and 218 % of control
COC(=O)NC1CCCCC1I (stereo not drawn),T/C,[9],100 % of control
same,T/C,[11],100 % of control
same,T/C,[10],100 % of control
same,T/C,[12],100 % of control
same,T/C,[20],100 % of control
same,T/C,[21],109 % of control
CC1CN1P(=O)(N1CC2CCC(CC2)C1)N1CC1C (stereo not drawn),T/C,"dose: 14.0 mg/kg/injection, schedule: Q01DX009 (ip), vehicle: saline with Tween-80",113 % of control
same,T/C,"dose: 21.0 mg/kg/injection, schedule: Q01DX009 (ip), vehicle: saline with Tween-80",122 % of control
same,T/C,"dose: 33.0 mg/kg/injection, schedule: Q01DX009 (ip), vehicle: saline with Tween-80",159 % of control
same,T/C,[8],154 % of control
same,T/C,[9],86 % of control
CC(=O)Oc1ccc(N2C(=O)C3C(C2=O)C2c4ccccc4C3C3CCCCN32)cc1 (stereo not drawn) (tested in a mixture with another compound),T/C,"dose: 6.25 mg/kg/injection, schedule: Q04DX003 (ip), vehicle: water",97 % of control
same,T/C,"dose: 12.5 mg/kg/injection, schedule: Q04DX003 (ip), vehicle: water",101 % of control
same,T/C,"dose: 25.0 mg/kg/injection, schedule: Q04DX003 (ip), vehicle: water",99 % of control
same,T/C,"dose: 50.0 mg/kg/injection, schedule: Q04DX003 (ip), vehicle: water",101 % of control
same,T/C,"dose: 100.0 mg/kg/injection, schedule: Q04DX003 (ip), vehicle: water",91 % of control
Oc1cccc(O)c1,T/C,"dose: 50.0 mg/kg/injection, schedule: Q01DX010 (ip), vehicle: saline",95 % of control
same,T/C,"dose: 100.0 mg/kg/injection, schedule: Q01DX010 (ip), vehicle: saline",91 % of control
NC(c1ccccc1)C(N)c1ccccc1 (stereo not drawn),T/C,[11],95 % of control
CCC/C=C/C=C/C1CC(O)C(O)C(=O)C1C=O (stereo not drawn),T/C,[15],108 % of control
same,T/C,"dose: 25.0 mg/kg/injection, schedule: Q01DX009 (ip), vehicle: saline with Tween-80",100 % of control
same,T/C,[8],101 % of control
COc1cc(-c2ccc(N=Nc3c(O)ccc4ccccc34)c(OC)c2)ccc1N=Nc1ccc2c(S(=O)(=O)O)cc(S(=O)(=O)O)c(N)c2c1O,T/C,[16],111 % of control
same,T/C,"dose: 50.0 mg/kg/injection, schedule: Q04DX003 (ip), vehicle: saline",104 % of control
same,T/C,[13],100 % of control
same,T/C,[18],105 % of control
same,T/C,[14],100 % of control
CCN(CC)CC(C)OC(=O)c1ccc(N)cc1 (stereo not drawn),T/C,"dose: 33.0 mg/kg/injection, schedule: Q01DX009 (ip), vehicle: saline",92 % of control
same,T/C,[16],100 % of control
same,T/C,"dose: 75.0 mg/kg/injection, schedule: Q01DX009 (ip), vehicle: saline",104 % of control
same,T/C,[17],100 % of control
same,T/C,[13],95 % of control
same,T/C,[14],86 % of control
